Consider two compounds from US9850383B2, “Uncharged pyrenyloxy sulfonamide dyes for conjugation with biomolecules” (Gene Tools, LLC, priority 2016, dated 2017).

Data set [1] can be described thus: Excitation and emission spectrum (fluorescence). It counts as physicochemical. The text has this: FIG. 1. Excitation and emission spectrum of pyrenyloxy sulfonamide (Compound 4a)
FIG. 2. Excitation and emission spectrum of Cascade Blue
FIG. 3. Excitation and emission spectrum of fluorescein
(§1) The core structure of the improved, reactive, hydrophilic, uncharged fluorophores is a new class of pyrenyloxy sulfonamide compounds. […] The novelty of this invention involves the substantial improvement of the properties of Cascade Blue, a currently available blue-fluorescent dye. The high polarity of anionic sulfonate of Cascade Blue results in the membrane-impermeability which can only be used extracellularly, a major disadvantage for many desirable applications. […] And the high aqueous solubility of the pyrenyloxy sulfonamide is useful for biological and physiological application, allowing staining the cell surface which is negatively charged, and even more useful to enter the cell for intracellular detection. In addition, the Stokes shift of Cascade Blue is undesirably small (ca. 20 nm, FIG. 2). […] The Stokes shift of the compounds of this invention is a much more practical 44 nm (FIG. 1), a significant improvement in its utility as a tracer for biological applications. The molar extinction coefficient of the structure of the invention is slightly higher (3.1×10^4 cm^−1 M^−1 at λ423 nm) than that of Cascade Blue (2.9×10^4 cm^−1 M^−1 at λ410 nm), an additional advantage for increased sensitivity. Photostability of the dye (compound 6 in FIG. 6) was tested under the light exposure. The scans were overlaid up to 60 mins with 15 min interval. […] This resistance to photobleaching greatly enhances the utility of the dye for quantitative measurements and permits extended illumination time.
Obvious is the spectra region shorter than 500 nm which is particularly valuable to get away from interference where green fluorescent protein is present or, to carry out the applications requiring multiple dyes such as flow cytometry, DNA sequencing and multiparameter microscopy. […] This special feature increases the sensitivity of the fluorescence techniques where the emission signal can be maximized against the low background.

A short description of data set [2]: Molar extinction coefficient. It counts as physicochemical. The settings on record: at λ410 nm.
Source text: as §1, with “sensitivity.” for “sensitivity. Photostability of the dye (compound 6 in FIG. 6) was tested under the light exposure. The scans were overlaid up to 60 mins with 15 min interval.”

For `O=S(=O)(c1cc(OCCCO)c2ccc3c(S(=O)(=O)N4CCOCC4)cc(S(=O)(=O)N4CCOCC4)c4ccc1c2c34)N1CCOCC1` [Compound 4a, 8-(3′-hydroxypropyloxy)pyren-tris(morpholino)-1,3,6-trisulfonamide], in data set [1], the Stokes shift result is “ca. 44 nm”, the peak of emission stood at 465 nm and the peak of excitation was 421 nm.

Regarding Cascade Blue [reference compound], the Stokes shift result in data set [1] was “ca. 20 nm”. The compound further gave a molar extinction coefficient in data set [2] of 29000 cm⁻¹ M⁻¹.
